How the values were obtained:
P. falciparum FTase = P. falciparum FTase (Plasmodium falciparum, UniProt Q5EI73+Q5EI74); assay: P. falciparum FTase activity assay as described in Glenn et al., 2006; assay type: biochemical; details: for Selectivity: IC50 for hFTase divided by IC50 for PfFTase
Human FTase = Human FTase (Homo sapiens, UniProt P49354+P49356); details: legend of Figure 4C; mammalian enzyme
[1] = read-out: inhibition of P. falciparum FTase activity

Row | Structure (SMILES) | Selectivity (P. falciparum FTase) | IC50 (in words) (Human FTase) | inhibition at 0.0005 µM (P. falciparum FTase; [1]) [%] | inhibition at 0.005 µM (P. falciparum FTase; [1]) [%]
1 | Cc1ccccc1S(=O)(=O)N(CCN(Cc1cncn1C)c1ccc(C#N)cc1)Cc1ccccc1 [Compound 7, N-Benzyl, N-{2-[(4-cyanophenyl)-(3-methyl-3H-imidazol-4-ylmethyl)-amino]-ethyl} 2-methyl-benzenesulfonamide] | 32 |  |  | 
2 | Cn1cncc1CN(CCN(CC1CCN(C(=O)OC(C)(C)C)CC1)S(=O)(=O)c1ccccc1-c1cccc(CCC(=O)O)c1)c1ccc(C#N)cc1 [Compound 10, N-(N-tert-Butoxycarbonylpiperidin-4-ylmethyl), N-({2-[(4-cyanophenyl)-(3-methyl-3H-imidazol-4-ylmethyl)-amino]-ethyl}) (3′-(2-carboxyethyl)-biphenyl)-2-sulfonamide] | 11 | sub-micromolar |  | 
3 | Cc1ccccc1S(=O)(=O)N(CCN(Cc1cncn1C)c1ccc(C#N)cc1)CC1CCN(C(=O)OC(C)(C)C)CC1 [Compound 5, N-(N-tert-Butoxycarbonylpiperidin-4-ylmethyl), N-({2-[(4-cyanophenyl)-(3-methyl-3H-imidazol-4-ylmethyl)-amino]-ethyl}) 2-methylbenzenesulfonamide] |  |  | 20 | 76

Reference: article PMC2671474 (Chemistry & biology, 2009)
